Source: patent publication US9962354B2, “Method and composition for bacterial or fungal suppression on skin” (priority 2009, dated 2018)

Key:
[1] = tested on: pseudomonas aeruginosa (ATCC 15442); assay: 27 hour kinetic growth assay using a redox active dye; format: cell-based; conditions: 25 uL test material in TSB, 27 hour kinetic assay
Protocol: (§1) Conjugated linoleic acid (80%) and conjugated linoleic acid diglyceride, containing both trans and cis isomers, were used to show persisting reduction of bacterial growth over several hours. Each measure was accomplished in separate wells. Each well received a unique combination of the following, including controls. Conjugated linoleic acid 80% and conjugated linoleic acid diglyceride, 25 uL were each separately added to Trypticase Soy Broth (TSB). To each solution was added 75 uL TSB plus 50 uL staphylococcus aureus (ATCC 6366) or pseudomonas aeruginosa (ATCC 15442). This was then entered into a 27 hour kinetic assay using a redox active dye to monitor growth. Appropriate controls were simultaneously run.

[2] = tested on: staphylococcus aureus (ATCC 6366); assay: as above; format: cell-based; conditions: 25 uL test material in TSB, 27 hour kinetic assay
Protocol: as §1

[3] = direct application of oil to skin with acne; format: in vivo; conditions: applied twice daily directly to skin; after 24 hours
From the text: CLA free fatty acid oil was applied twice daily directly to skin with acne.

| Substance | reduction in bacterial growth beginning at [1] [min] | reduction in bacterial growth sustained for [1] [h] | reduction in bacterial growth beginning at [2] [min] | reduction in bacterial growth sustained for [2] [h] | size and redness of the acne [3] |
| --- | --- | --- | --- | --- | --- |
| conjugated linoleic acid [conjugated linoleic free fatty acid] | 200 | 27 | 30 | 20 | substantial reduction in the size and redness of the acne |
| conjugated linoleic acid diglyceride [conjugated linoleic diglyceride] | 200 | 27 | 30 | 20 |  |
